Broadly, the IC50 is the midpoint of a concentration-inhibition curve.

SMILES strings stand for the structures. A value given as a limit tells only on which side of the number the result lay.

The first series concerns BV-2. Description: Cytotoxicity against mouse BV2 cells at 50 uM by MTT assay. Type of series: cell-based. The note with it: bv-2, 50 µM. (In general: Formazan colour is commonly taken as a measure of viable cells.)
With `COc1ccc(-c2coc3cc(OCC=C(C)C)ccc3c2=O)cc1`, the Activity entry was “Non-Toxic”.
The same measure, in the same setting: the same measure for `CC(C)=CCOc1ccc2c(=O)c(-c3ccc4c(c3)OCO4)coc2c1`: “Non-Toxic”.
On to `COc1ccc(-c2coc3c(-c4c(OC)cc([C@@H]5OO[C@@H]5CO)cc4OC)c(O)ccc3c2=O)cc1O`, for which the Activity entry is “Non-Toxic”.
Turning to `COc1cc(O)c2c(=O)c(-c3cc(OC)c(O)c(O)c3CC=C(C)C)coc2c1`, the Activity entry is on record as “Non-Toxic”.
For the compound `COc1ccc(-c2coc3cc(OCC=C(C)C)ccc3c2=O)cc1OC`, the Activity entry is “Non-Toxic”.
The same measure, in the same setting: with `COc1ccc(-c2coc3c(OC)c(OCC=C(C)C)ccc3c2=O)cc1` the entry was “Non-Toxic”; with `COc1cc(-c2coc3cc(O)ccc3c2=O)cc(O)c1-c1c(OC)cc([C@@H]2OO[C@@H]2CO)cc1OC`, “Non-Toxic”.
Same read-out and setting: with `COc1cc(O)c([C@@H]2COc3cc(O)ccc3C2=O)c(OC)c1OC` the entry was “Non-Toxic”.
As to `COc1ccc([C@@H]2COc3cc(O)ccc3C2=O)c(O)c1`, the Activity entry is recorded as “Non-Toxic”.
For `COc1cc(-c2coc3cc(O)ccc3c2=O)ccc1O`, the Activity result is listed as “Non-Toxic”.
Still for that read-out and setting: with `O=c1c(-c2ccc(O)cc2)coc2cc(O)cc(O)c12` [GENISTEIN] the entry was “Non-Toxic”; with `COc1ccc(-c2coc3cc(O)cc(O)c3c2=O)cc1O` [PRATENSEIN], “Non-Toxic”.

For a further series, the system named is BV-2. Description: Antiinflammatory activity in mouse BV2 cells assessed as inhibition of LPS-induced nitric oxide production. Type of series: functional, cell-based.
Conditions: not given
Turning to `COc1ccc(-c2coc3cc(OCC=C(C)C)ccc3c2=O)cc1`, the 50% inhibitory concentration (IC50) turned out to be 45.2 µM.
Still for that read-out and setting: with `CC(C)=CCOc1ccc2c(=O)c(-c3ccc4c(c3)OCO4)coc2c1` the figure was 46.6 µM; with `COc1ccc(-c2coc3c(-c4c(OC)cc([C@@H]5OO[C@@H]5CO)cc4OC)c(O)ccc3c2=O)cc1O`, 9 µM.
With `COc1cc(O)c2c(=O)c(-c3cc(OC)c(O)c(O)c3CC=C(C)C)coc2c1`, the IC50 was 16.5 µM.
With `COc1ccc(-c2coc3cc(OCC=C(C)C)ccc3c2=O)cc1OC`, the half-maximal inhibitory concentration (IC50) worked out at 36.9 µM.
Still for that read-out and setting: the same measure for `COc1ccc(-c2coc3c(OC)c(OCC=C(C)C)ccc3c2=O)cc1`: 35.7 µM; for `COc1cc(-c2coc3cc(O)ccc3c2=O)cc(O)c1-c1c(OC)cc([C@@H]2OO[C@@H]2CO)cc1OC`: 19.7 µM; for `COc1ccc(-c2coc3cc(OCC=C(C)C)cc(O)c3c2=O)cc1`: greater than 50 µM.
Same read-out and setting: the same measure for `COc1ccc([C@@H]2COc3cc(O)ccc3C2=O)cc1`: greater than 50 µM; for `COc1cc(O)cc(-c2coc3cc(O)ccc3c2=O)c1`: greater than 50 µM.
As for `COc1ccc(-c2coc3cc(OCC=C(C)C)cc(O)c3c2=O)cc1OC`, the IC50 is greater than 50 µM.
On to `COc1cc(O)c([C@@H]2COc3cc(O)ccc3C2=O)c(OC)c1OC`, for which the IC50 worked out at 35.8 µM.
Regarding `COc1cc(O)cc(-c2coc3cc(O)c(OC)cc3c2=O)c1`, the half-inhibitory concentration (IC50) is greater than 50 µM.
The same measure, in the same setting: the same measure for `COc1ccc([C@@H]2COc3cc(O)ccc3C2=O)c(O)c1`: 39.8 µM; for `COc1ccc([C@@]2(O)COc3cc(OC)ccc3C2=O)c(O)c1`: greater than 50 µM.
As to `COc1cc(-c2coc3cc(O)ccc3c2=O)ccc1O`, the IC50 amounted to 39.8 µM.
Same read-out and setting: with `COc1cc(-c2coc3cc(O)ccc3c2=O)cc(OC)c1O` the figure was greater than 50 µM; with `COc1cc(-c2coc3cc(O)cc(O)c3c2=O)ccc1O` [3'-O-METHYLOROBOL], greater than 50 µM.
As for `COc1ccc([C@@H]2COc3cc(O)ccc3C2=O)c(OC)c1` [(3R)-SATIVANONE], the IC50 was greater than 50 µM.
On to `COc1ccc([C@@H]2COc3cc(O)ccc3C2=O)c(OC)c1O` [(3R)-VIOLANONE], for which the half-inhibitory concentration (IC50) was greater than 50 µM.
Same read-out and setting: the same measure for `O=c1c(-c2ccc(O)cc2)coc2cc(O)ccc12` [DAIDZEIN]: greater than 50 µM; for `C[C@@H]1C[C@H]2[C@@H]3CCC4=CC(=O)C=C[C@]4(C)[C@@]3(F)[C@@H](O)C[C@]2(C)[C@@]1(O)C(=O)CO` [DEXAMETHASONE]: 9.5 µM.
In the case of `COc1cc(-c2coc3c(CC=C(C)C)c(O)c(CC=C(C)C)c(O)c3c2=O)ccc1O` [FLEMINGSIN], the half-maximal inhibitory concentration (IC50) is greater than 50 µM.
On the same count and under the same terms, the same measure for `COc1ccc(-c2coc3cc(O)ccc3c2=O)cc1` [FORMONONETIN]: greater than 50 µM.
Same read-out and setting: with `O=c1c(-c2ccc(O)cc2)coc2cc(O)cc(O)c12` [GENISTEIN] the figure was 28.4 µM; with `COc1ccc(-c2coc3cc(O)cc(O)c3c2=O)cc1O` [PRATENSEIN], 26.3 µM.

The values above are taken from ChEMBL document CHEMBL4184303, “Anti-inflammatory isoflavones and isoflavanones from the roots of Pongamia pinnata (L.) Pierre” (Bioorg Med Chem Lett, 2018).
